Results as given in PubChem BioAssay AID248 (DTP/NCI, 2004).
Several values for one entry are separate records, joined by “and”; a condition that tells them apart may be missing. Equal values may be shown once. Inconclusive results and toxic doses are left out. Rule as the data show it: active = T/C of 150% or more; inactive = T/C below 125%.

Test system: L1210 leukemia ip in BDF1 mice, survival T/C
Assay: NCI In Vivo Anticancer Drug Screen. Data for tumor model L1210 Leukemia (intraperitoneal) in B6D2F1 (BDF1) mice
Conditions: endpoint: mean survival time, higher = longer survival
In short: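 Read-out is survival time, reported as the treated-group measurement over the vehicle-control measurement.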

[1] = dose: 100.0 mg/kg/injection, schedule: Q01DX009 (ip), vehicle: Klucel (hydroxypropylcellulose) (HPC)
[2] = dose: 100.0 mg/kg/injection, schedule: Q04DX003 (ip), vehicle: Klucel (hydroxypropylcellulose) (HPC)
[3] = dose: 200.0 mg/kg/injection, schedule: Q01DX009 (ip), vehicle: Klucel (hydroxypropylcellulose) (HPC)
[4] = dose: 200.0 mg/kg/injection, schedule: Q04DX003 (ip), vehicle: Klucel (hydroxypropylcellulose) (HPC)
[5] = dose: 400.0 mg/kg/injection, schedule: Q04DX003 (ip), vehicle: Klucel (hydroxypropylcellulose) (HPC)
[6] = dose: 100.0 mg/kg/injection, schedule: Q01DX001 (ip), vehicle: saline
[7] = dose: 200.0 mg/kg/injection, schedule: Q01DX001 (ip), vehicle: saline
[8] = dose: 400.0 mg/kg/injection, schedule: Q01DX001 (ip), vehicle: saline
[9] = dose: 100.0 mg/kg/injection, schedule: Q01DX009 (ip), vehicle: saline with Tween-80
[10] = dose: 100.0 mg/kg/injection, schedule: Q04DX003 (ip), vehicle: saline with Tween-80
[11] = dose: 200.0 mg/kg/injection, schedule: Q01DX009 (ip), vehicle: saline with Tween-80
[12] = dose: 200.0 mg/kg/injection, schedule: Q04DX003 (ip), vehicle: saline with Tween-80
[13] = dose: 400.0 mg/kg/injection, schedule: Q01DX009 (ip), vehicle: saline with Tween-80
[14] = dose: 400.0 mg/kg/injection, schedule: Q04DX003 (ip), vehicle: saline with Tween-80
[15] = dose: 200.0 mg/kg/injection, schedule: Q01DX001 (ip), vehicle: carboxymethylcellulose (CMC)
[16] = dose: 400.0 mg/kg/injection, schedule: Q01DX001 (ip), vehicle: carboxymethylcellulose (CMC)
[17] = dose: 100.0 mg/kg/injection, schedule: Q04DX002 (ip), vehicle: Klucel (hydroxypropylcellulose) (HPC)
[18] = dose: 200.0 mg/kg/injection, schedule: Q04DX002 (ip), vehicle: Klucel (hydroxypropylcellulose) (HPC)
[19] = dose: 400.0 mg/kg/injection, schedule: Q04DX002 (ip), vehicle: Klucel (hydroxypropylcellulose) (HPC)
[20] = dose: 400.0 mg/kg/injection, schedule: Q01DX009 (ip), vehicle: Klucel (hydroxypropylcellulose) (HPC)

Measured: T/C

CSc1n[nH]c(Cl)n1
inactive: dose: 25.0 mg/kg/injection, schedule: Q04DX002 (ip), vehicle: saline with Tween-80 98 % of control and 103 % of control | dose: 50.0 mg/kg/injection, schedule: Q04DX002 (ip), vehicle: saline with Tween-80 102 % of control and 106 % of control | dose: 100.0 mg/kg/injection, schedule: Q04DX002 (ip), vehicle: saline with Tween-80 103 % of control and 107 % of control and 114 % of control | dose: 200.0 mg/kg/injection, schedule: Q04DX002 (ip), vehicle: saline with Tween-80 104 % of control and 113 % of control and 90 % of control | dose: 400.0 mg/kg/injection, schedule: Q04DX002 (ip), vehicle: saline with Tween-80 93 % of control

O=[N+]([O-])c1cc2c(cc1Br)nc(Cl)c1cc(Br)ccc12
inactive: [1] 89 % of control | [2] 104 % of control | [3] 91 % of control | [4] 100 % of control | [5] 96 % of control

O=C1c2cccc3cccc(c23)C(=O)N1Cc1ccccc1
inactive: [6] 95 % of control | [7] 103 % of control | [8] 91 % of control

O=C(O)C1C2C=CC(C2)C1c1ccccc1 (centres undefined)
inactive: [9] 101 % of control | [10] 97 % of control | [11] 97 % of control | [12] 93 % of control | [13] 98 % of control | [14] 114 % of control

O=CCc1ccc2c(c1)OCO2
inactive: [15] 92 % of control | [16] 108 % of control

CCCCCCCCC(=O)N(CCC)CCC
inactive: dose: 100.0 mg/kg/injection, schedule: Q01DX009 (ip), vehicle: carboxymethylcellulose (CMC) 94 % of control and 97 % of control | dose: 100.0 mg/kg/injection, schedule: Q04DX002 (ip), vehicle: carboxymethylcellulose (CMC) 96 % of control | dose: 200.0 mg/kg/injection, schedule: Q01DX009 (ip), vehicle: carboxymethylcellulose (CMC) 93 % of control and 96 % of control | dose: 200.0 mg/kg/injection, schedule: Q04DX002 (ip), vehicle: carboxymethylcellulose (CMC) 96 % of control | dose: 400.0 mg/kg/injection, schedule: Q01DX009 (ip), vehicle: carboxymethylcellulose (CMC) 94 % of control and 90 % of control | dose: 400.0 mg/kg/injection, schedule: Q04DX002 (ip), vehicle: carboxymethylcellulose (CMC) 96 % of control

O=C(O)CSC(SCC(=O)O)(c1ccccc1)c1ccccc1
inactive: [17] 88 % of control | [18] 104 % of control | [19] 102 % of control

COc1cccc(NC(=O)Nc2ccccc2Cl)c1
inactive: dose: 100.0 mg/kg/injection, schedule: Q01DX009 (ip), vehicle: gum acacia 93 % of control | dose: 100.0 mg/kg/injection, schedule: Q04DX003 (ip), vehicle: gum acacia 92 % of control | dose: 200.0 mg/kg/injection, schedule: Q01DX009 (ip), vehicle: gum acacia 98 % of control | dose: 200.0 mg/kg/injection, schedule: Q04DX003 (ip), vehicle: gum acacia 90 % of control | dose: 400.0 mg/kg/injection, schedule: Q01DX009 (ip), vehicle: gum acacia 96 % of control | dose: 400.0 mg/kg/injection, schedule: Q04DX003 (ip), vehicle: gum acacia 94 % of control

CC1=CC(=O)N(CO)C1=O
inactive: dose: 25.0 mg/kg/injection, schedule: Q04DX003 (ip), vehicle: water 94 % of control | dose: 50.0 mg/kg/injection, schedule: Q04DX003 (ip), vehicle: water 98 % of control

CCCC#CC(=O)OCCCCC
inactive: dose: 100.0 mg/kg/injection, schedule: Q04DX002 (ip), vehicle: saline 108 % of control | dose: 200.0 mg/kg/injection, schedule: Q04DX002 (ip), vehicle: saline 94 % of control | dose: 400.0 mg/kg/injection, schedule: Q04DX002 (ip), vehicle: saline 105 % of control

ClC(Cl)(Cl)c1ccc(C(SCc2ccccc2)SCc2ccccc2)cc1
inactive: [10] 86 % of control | [12] 89 % of control | [14] 86 % of control

Cc1ccc(N=Nc2ccc([N+](=O)[O-])cc2)c([N+](=O)[O-])c1
inactive: dose: 100.0 mg/kg/injection, schedule: Q01DX001 (ip), vehicle: carboxymethylcellulose (CMC) 96 % of control | [15] 93 % of control | [16] 96 % of control

O=C1C(=O)c2ccccc2C=C1[N+](=O)[O-]
inactive: dose: 5.0 mg/kg/injection, schedule: Q01DX009 (ip), vehicle: saline 92 % of control | dose: 5.0 mg/kg/injection, schedule: Q04DX003 (ip), vehicle: saline 108 % of control | dose: 10.0 mg/kg/injection, schedule: Q01DX009 (ip), vehicle: saline 101 % of control | dose: 10.0 mg/kg/injection, schedule: Q04DX003 (ip), vehicle: saline 96 % of control | dose: 20.0 mg/kg/injection, schedule: Q01DX009 (ip), vehicle: saline 99 % of control | dose: 20.0 mg/kg/injection, schedule: Q04DX003 (ip), vehicle: saline 93 % of control

CN(C)c1ccc(/C=C2\CC/C(=C\c3ccc(N(C)C)cc3)C2=O)cc1
inactive: [1] 105 % of control | [3] 97 % of control | [20] 89 % of control

C[N+](C)(C)CCOC(=O)c1cccc(CBr)c1CBr
inactive: dose: 6.25 mg/kg/injection, schedule: Q01DX009 (ip), vehicle: saline 103 % of control | dose: 6.25 mg/kg/injection, schedule: Q04DX003 (ip), vehicle: saline 104 % of control | dose: 12.5 mg/kg/injection, schedule: Q01DX009 (ip), vehicle: saline 97 % of control | dose: 12.5 mg/kg/injection, schedule: Q04DX003 (ip), vehicle: saline 98 % of control | dose: 25.0 mg/kg/injection, schedule: Q01DX009 (ip), vehicle: saline 97 % of control | dose: 25.0 mg/kg/injection, schedule: Q04DX003 (ip), vehicle: saline 104 % of control

O=c1ccnc(-c2ccccc2)[nH]1
inactive: [17] 119 % of control | [18] 119 % of control | [19] 114 % of control

CCCCCCCCCCCCCC(O)CC(=O)O (centres undefined)
inactive: [17] 91 % of control | [18] 91 % of control | [19] 104 % of control

CN=C(NC)c1ccc(NC(=O)/C=C\c2ccc(/C=C/C(=O)Nc3ccc(C(=NC)NC)cc3)cc2)cc1
inactive: dose: 7.5 mg/kg/injection, schedule: Q01DX Z (oral), vehicle: saline 95 % of control | dose: 15.0 mg/kg/injection, schedule: Q01DX Z (oral), vehicle: saline 91 % of control | dose: 30.0 mg/kg/injection, schedule: Q01DX Z (oral), vehicle: saline 95 % of control | dose: 60.0 mg/kg/injection, schedule: Q01DX Z (oral), vehicle: saline 103 % of control

Brc1sccc1-c1cccc2ccccc12
inactive: [10] 94 % of control | [14] 91 % of control

CCOC(=O)C1=C(C)NC(C)=C(C(=O)OCC)C1c1cccc([N+](=O)[O-])c1
inactive: [2] 100 % of control | [4] 105 % of control | [5] 108 % of control

O=C(Nc1ccc(F)c([N+](=O)[O-])c1)NC(Cc1ccccc1)c1ccccc1 (centres undefined)
inactive: [1] 98 % of control | [3] 101 % of control | [20] 104 % of control

CC(=O)Nc1ccc(S(=O)(=O)Nc2ccc([N+](=O)[O-])cc2)cc1
inactive: dose: 25.0 mg/kg/injection, schedule: Q01DX009 (ip), vehicle: saline with Tween-80 96 % of control | dose: 50.0 mg/kg/injection, schedule: Q01DX009 (ip), vehicle: saline with Tween-80 100 % of control | [9] 98 % of control and 87 % of control | [10] 109 % of control | [11] 95 % of control and 94 % of control | [12] 109 % of control | [13] 97 % of control and 94 % of control | [14] 109 % of control

COc1ccc2c(=O)c3c(O)cc(OC)cc3oc2c1
inactive: [6] 97 % of control | [7] 101 % of control | [8] 87 % of control and 90 % of control

O=C(Cc1cccc([N+](=O)[O-])c1)Nc1ccc(S(=O)(=O)F)cc1
inactive: [6] 112 % of control | [7] 111 % of control | [8] 110 % of control
